Experimental data from PMC5218480 (PLoS ONE, 2017).

Tested on: MV-4-11 cells
Assay: Gene expression microarray analysis (Affymetrix PrimeView) and GSEA
Type: cell-based, human
Set-up: RFU PODN (11730768_x_at) / Fold change /veh PODN (11730768_x_at) / RFU LINC00158 (11744669_a_at) / Fold change /veh LINC00158 (11744669_a_at) / RFU DUSP10 (11751237_a_at) / Fold change /veh DUSP10 (11751237_a_at) / RFU ID3 (11757404_x_at) / Fold change /veh ID3 (11757404_x_at) / RFU PLEKHG5 (11737974_s_at) / Fold change /veh PLEKHG5 (11737974_s_at) / RFU LRRC4B (11730491_at) / Fold change /veh LRRC4B (11730491_at) / RFU GIMAP4 (11747438_a_at) / Fold change /veh GIMAP4 (11747438_a_at) / RFU KRT8 (11758183_x_at) / Fold change /veh KRT8 (11758183_x_at) / RFU CNN1 (11734310_a_at) / Fold change /veh CNN1 (11734310_a_at) / RFU VPS37D (11726825_at) / Fold change /veh VPS37D (11726825_at) / RFU C10orf10 (11716522_x_at) / Fold change /veh C10orf10 (11716522_x_at) / RFU KIR2DL2 /// KIR2DL4 /// KIR2DL5A /// KIR2DL5B /// KIR2DS1 /// KIR2DS2 /// KIR2DS3 /// KIR2DS4 /// KIR3DL3 /// KIR3DL3 /// KIR3DS1 (11738374_at) / Fold change /veh KIR2DL2 /// KIR2DL4 /// KIR2DL5A /// KIR2DL5B /// KIR2DS1 /// KIR2DS2 /// KIR2DS3 /// KIR2DS4 /// KIR3DL3 /// KIR3DL3 /// KIR3DS1 (11738374_at) / RFU C1QL1 (11718748_at) / Fold change /veh C1QL1 (11718748_at) / RFU TMPRSS4 (11747572_a_at) / Fold change /veh TMPRSS4 (11747572_a_at) / RFU HAMP (11756126_x_at) / Fold change /veh HAMP (11756126_x_at) / RFU RNFT2 (11725882_a_at) / Fold change /veh RNFT2 (11725882_a_at) / RFU NR4A2 (11747474_a_at) / Fold change /veh NR4A2 (11747474_a_at) / RFU ABCC12 (11746883_a_at) / Fold change /veh ABCC12 (11746883_a_at) / RFU TMEM136 (11760407_x_at) / Fold change /veh TMEM136 (11760407_x_at) / RFU CLDN22 /// WWC2 (11732394_at) / Fold change /veh CLDN22 /// WWC2 (11732394_at) / RFU HLA-DPB1 (11760878_x_at) / Fold change /veh HLA-DPB1 (11760878_x_at) / RFU SPINT1 (11716480_a_at) / Fold change /veh SPINT1 (11716480_a_at) / RFU GAP43 (11754022_s_at) / Fold change /veh GAP43 (11754022_s_at) / RFU A4GNT (11735810_at) / Fold change /veh A4GNT (11735810_at) / RFU PRB3 (11715151_x_at) / Fold change /veh PRB3 (11715151_x_at) / RFU TUBB4B (11761932_at) / Fold change /veh TUBB4B (11761932_at) / RFU CAPN14 (11732068_a_at) / Fold change /veh CAPN14 (11732068_a_at) / RFU TMCC2 (11721928_a_at) / Fold change /veh TMCC2 (11721928_a_at) / RFU IRGQ (11745062_a_at) / Fold change /veh IRGQ (11745062_a_at) / RFU FAM174B (11720279_a_at) / Fold change /veh FAM174B (11720279_a_at) / RFU TMPRSS4 (11748680_a_at) / Fold change /veh TMPRSS4 (11748680_a_at) / RFU FAM212B (11763350_a_at) / Fold change /veh FAM212B (11763350_a_at) / RFU PLEKHG5 (11743358_a_at) / Fold change /veh PLEKHG5 (11743358_a_at) / RFU ZSCAN30 (11745921_a_at) / Fold change /veh ZSCAN30 (11745921_a_at) / RFU CMKLR1 (11741424_a_at) / Fold change /veh CMKLR1 (11741424_a_at) / RFU LOC101060620 /// MAPK8IP1 (11723275_at) / Fold change /veh LOC101060620 /// MAPK8IP1 (11723275_at) / RFU SPTSSB (11747773_x_at) / Fold change /veh SPTSSB (11747773_x_at) / RFU PRSS12 (11739890_at) / Fold change /veh PRSS12 (11739890_at) / RFU BIN1 (11741810_x_at) / Fold change /veh BIN1 (11741810_x_at) / RFU WNT11 (11732464_a_at) / Fold change /veh WNT11 (11732464_a_at) / RFU C10orf10 (11716521_a_at) / Fold change /veh C10orf10 (11716521_a_at) / RFU C5orf56 (11738089_at) / Fold change /veh C5orf56 (11738089_at) / RFU CYB561 (11721691_x_at) / Fold change /veh CYB561 (11721691_x_at) / RFU ANKRD19P (11752326_a_at) / Fold change /veh ANKRD19P (11752326_a_at) / RFU OR2T12 /// OR2T33 /// OR2T8 (11738714_s_at) / Fold change /veh OR2T12 /// OR2T33 /// OR2T8 (11738714_s_at) / RFU VCAN (11748164_a_at) / Fold change /veh VCAN (11748164_a_at) / RFU JSRP1 (11732532_at) / Fold change /veh JSRP1 (11732532_at) / RFU KRTAP10-11 (11738290_x_at) / Fold change /veh KRTAP10-11 (11738290_x_at) / RFU MYO3A (11730013_a_at) / Fold change /veh MYO3A (11730013_a_at) / RFU EBF3 (11725865_a_at) / Fold change /veh EBF3 (11725865_a_at) / RFU CAMK2N1 (11719241_x_at) / Fold change /veh CAMK2N1 (11719241_x_at) / RFU C5orf56 (11738088_a_at) / Fold change /veh C5orf56 (11738088_a_at) / RFU OLFML3 (11715873_a_at) / Fold change /veh OLFML3 (11715873_a_at) / RFU LOC100653217 /// NTM (11731650_a_at) / Fold change /veh LOC100653217 /// NTM (11731650_a_at) / RFU MAPK11 (11762145_a_at) / Fold change /veh MAPK11 (11762145_a_at) / RFU FIZ1 (11724087_x_at) / Fold change /veh FIZ1 (11724087_x_at) / RFU OASL (11726364_x_at) / Fold change /veh OASL (11726364_x_at) / RFU SOX15 (11748057_x_at) / Fold change /veh SOX15 (11748057_x_at) / RFU CD79A (11719716_a_at) / Fold change /veh CD79A (11719716_a_at) / RFU HIST1H1D (11736915_at) / Fold change /veh HIST1H1D (11736915_at) / RFU CASKIN2 (11723855_a_at) / Fold change /veh CASKIN2 (11723855_a_at) / RFU LOC730098 (11760151_x_at) / Fold change /veh LOC730098 (11760151_x_at) / RFU OR4N2 (11742367_at) / Fold change /veh OR4N2 (11742367_at) / RFU PRRT2 (11749266_a_at) / Fold change /veh PRRT2 (11749266_a_at) / RFU SNX32 (11753110_a_at) / Fold change /veh SNX32 (11753110_a_at) / RFU CDHR5 (11726645_a_at) / Fold change /veh CDHR5 (11726645_a_at) / RFU RCAN1 (11760418_a_at) / Fold change /veh RCAN1 (11760418_a_at) / RFU FAM167A (11723789_a_at) / Fold change /veh FAM167A (11723789_a_at) / RFU FAM26E (11764081_at) / Fold change /veh FAM26E (11764081_at) / RFU ISYNA1 (11749810_s_at) / Fold change /veh ISYNA1 (11749810_s_at) / RFU ACY1 (11761880_at) / Fold change /veh ACY1 (11761880_at) / RFU 11764098_at / Fold change /veh 11764098_at / RFU SAMD14 (11745864_x_at) / Fold change /veh SAMD14 (11745864_x_at) / RFU NPB (11741838_a_at) / Fold change /veh NPB (11741838_a_at) / RFU TMPRSS6 (11731388_a_at) / Fold change /veh TMPRSS6 (11731388_a_at) / RFU KRTAP10-2 (11738614_at) / Fold change /veh KRTAP10-2 (11738614_at) / RFU ARHGAP8 /// PRR5-ARHGAP8 (11727945_x_at) / Fold change /veh ARHGAP8 /// PRR5-ARHGAP8 (11727945_x_at) / RFU KRTAP5-7 /// NADSYN1 (11734609_at) / Fold change /veh KRTAP5-7 /// NADSYN1 (11734609_at) / RFU RASL12 (11751679_a_at) / Fold change /veh RASL12 (11751679_a_at) / RFU CDKN2B (11736163_a_at) / Fold change /veh CDKN2B (11736163_a_at) / RFU PRF1 (11729649_at) / Fold change /veh PRF1 (11729649_at) / RFU, ZNF638 /// ZNF638-IT1 / Fold change vs veh, ZNF638 /// ZNF638-IT1 / RFU, PANK3 / Fold change vs veh, PANK3 / RFU, SH3YL1 / Fold change vs veh, SH3YL1 / RFU, ZEB2 / Fold change vs veh, ZEB2 / RFU, NRIP1 / Fold change vs veh, NRIP1 / RFU, PTTG1IP / Fold change vs veh, PTTG1IP / RFU, CAPN2 / Fold change vs veh, CAPN2 / RFU, MED14 / Fold change vs veh, MED14 / RFU, SNORA58 / Fold change vs veh, SNORA58 / RFU, C1orf63 / Fold change vs veh, C1orf63 / RFU, LRRFIP1 / Fold change vs veh, LRRFIP1 / RFU, NDUFAF7 / Fold change vs veh, NDUFAF7 / RFU, SLC12A2 / Fold change vs veh, SLC12A2 / RFU, IBTK / Fold change vs veh, IBTK / RFU, ESF1 / Fold change vs veh, ESF1 / Fold change vs veh, TMEM50B / RFU, TAOK1 / Fold change vs veh, TAOK1 / RFU, ACBD3 / Fold change vs veh, ACBD3 / RFU, TMA16 / Fold change vs veh, TMA16 / RFU, RWDD3 / Fold change vs veh, RWDD3 / RFU, BCAT1 / Fold change vs veh, BCAT1 / RFU, EDEM3 / Fold change vs veh, EDEM3 / RFU, TMEM33 / Fold change vs veh, TMEM33 / RFU, WDR75 / Fold change vs veh, WDR75 / RFU, AHCTF1 / Fold change vs veh, AHCTF1 / RFU, TFRC / Fold change vs veh, TFRC / RFU, ZDHHC17 / Fold change vs veh, ZDHHC17 / RFU, NOM1 / Fold change vs veh, NOM1 / RFU, ARL8B / Fold change vs veh, ARL8B / RFU, ZBTB11 / Fold change vs veh, ZBTB11 / RFU, TAMM41 / Fold change vs veh, TAMM41 / RFU, KIAA1704 /// LOC100996395 / Fold change vs veh, KIAA1704 /// LOC100996395 / RFU, ING1 / Fold change vs veh, ING1 / RFU, TRMT61B / Fold change vs veh, TRMT61B / RFU, FUBP3 / Fold change vs veh, FUBP3 / RFU, TP53 / Fold change vs veh, TP53 / RFU, TNKS2 / Fold change vs veh, TNKS2 / RFU, ZFP14 / Fold change vs veh, ZFP14 / RFU, ACTR2 / Fold change vs veh, ACTR2 / RFU, PPP3R1 / Fold change vs veh, PPP3R1 / RFU, PIK3R1 / Fold change vs veh, PIK3R1 / RFU, HNRNPA1 / Fold change vs veh, HNRNPA1 / RFU, RNF170 / Fold change vs veh, RNF170 / RFU, ZNF28 / Fold change vs veh, ZNF28 / RFU, RNGTT / Fold change vs veh, RNGTT / RFU, OGT / Fold change vs veh, OGT / RFU, BRD1 / Fold change vs veh, BRD1 / RFU, MARS / Fold change vs veh, MARS / RFU, ZNF655 / Fold change vs veh, ZNF655 / RFU, FAHD1 / Fold change vs veh, FAHD1 / RFU, BDP1 / Fold change vs veh, BDP1 / RFU, LRRCC1 / Fold change vs veh, LRRCC1 / RFU, ARID1A / Fold change vs veh, ARID1A / RFU, ZNF146 / Fold change vs veh, ZNF146 / RFU, ZNF330 / Fold change vs veh, ZNF330 / RFU, GPN3 / Fold change vs veh, GPN3 / RFU, C9orf123 / Fold change vs veh, C9orf123 / RFU, N4BP2L2 / Fold change vs veh, N4BP2L2 / RFU, ARFIP1 / Fold change vs veh, ARFIP1 / RFU, FAM179B / Fold change vs veh, FAM179B / RFU, BCL10 / Fold change vs veh, BCL10 / RFU, UHRF1BP1L / Fold change vs veh, UHRF1BP1L / RFU, BET1 / Fold change vs veh, BET1 / RFU, CNOT2 / Fold change vs veh, CNOT2 / RFU, ZNF268 / Fold change vs veh, ZNF268 / Fold change vs veh, ZNF507 / RFU, DGCR2 / Fold change vs veh, DGCR2 / RFU, WDSUB1 / Fold change vs veh, WDSUB1 / Fold change vs veh, HSP90B1 /// MIR3652 / RFU, ADSS / Fold change vs veh, ADSS / RFU, GK / Fold change vs veh, GK / RFU, ZNF148 / Fold change vs veh, ZNF148 / RFU, TAF9 / Fold change vs veh, TAF9 / RFU, SLC1A5 / Fold change vs veh, SLC1A5 / RFU, SLMO2 / Fold change vs veh, SLMO2 / RFU, ABCC4 / Fold change vs veh, ABCC4 / RFU, LOC101060439 /// RAP1B / Fold change vs veh, LOC101060439 /// RAP1B / RFU, RFX7 / Fold change vs veh, RFX7 / RFU, GTPBP10 / Fold change vs veh, GTPBP10 / RFU, CNEP1R1 / Fold change vs veh, CNEP1R1 / RFU, BIVM-ERCC5 /// ERCC5 / Fold change vs veh, BIVM-ERCC5 /// ERCC5 / RFU, ILF3 / Fold change vs veh, ILF3 / RFU 11762660_at / Fold change /veh 11762660_at / RFU VCAN (11757783_s_at) / Fold change /veh VCAN (11757783_s_at) / RFU DDX43 (11728927_at) / Fold change /veh DDX43 (11728927_at) / RFU KRT8 (11758188_x_at) / Fold change /veh KRT8 (11758188_x_at) / RFU NKD1 (11759106_at) / Fold change /veh NKD1 (11759106_at) / RFU SRD5A1 (11742802_a_at) / Fold change /veh SRD5A1 (11742802_a_at) / RFU TPSAB1 /// TPSB2 (11721975_s_at) / Fold change /veh TPSAB1 /// TPSB2 (11721975_s_at) / RFU GSTM3 (11746129_a_at) / Fold change /veh GSTM3 (11746129_a_at) / RFU IL23R (11737362_x_at) / Fold change /veh IL23R (11737362_x_at) / RFU TMEM51 (11727254_a_at) / Fold change /veh TMEM51 (11727254_a_at) / RFU PIWIL2 (11732686_x_at) / Fold change /veh PIWIL2 (11732686_x_at) / RFU ORM1 (11744905_x_at) / Fold change /veh ORM1 (11744905_x_at) / RFU CCDC152 (11743942_at) / Fold change /veh CCDC152 (11743942_at) / RFU ECM1 (11717891_a_at) / Fold change /veh ECM1 (11717891_a_at) / RFU IL23R (11748794_a_at) / Fold change /veh IL23R (11748794_a_at) / RFU TNFAIP8L3 (11732012_x_at) / Fold change /veh TNFAIP8L3 (11732012_x_at) / RFU MBOAT4 (11741988_at) / Fold change /veh MBOAT4 (11741988_at) / RFU 11764193_at / Fold change /veh 11764193_at / RFU TMEM53 (11763286_at) / Fold change /veh TMEM53 (11763286_at) / RFU MAGEB2 (11727129_at) / Fold change /veh MAGEB2 (11727129_at) / RFU TMEM200A (11744735_a_at) / Fold change /veh TMEM200A (11744735_a_at) / RFU CCDC152 (11751479_a_at) / Fold change /veh CCDC152 (11751479_a_at) / RFU FAM211A (11726209_a_at) / Fold change /veh FAM211A (11726209_a_at) / RFU RGS16 (11746705_a_at) / Fold change /veh RGS16 (11746705_a_at) / RFU VCAN (11755009_s_at) / Fold change /veh VCAN (11755009_s_at) / RFU RHOB (11743442_s_at) / Fold change /veh RHOB (11743442_s_at) / RFU RGS16 (11720943_a_at) / Fold change /veh RGS16 (11720943_a_at) / RFU RGS16 (11720944_at) / Fold change /veh RGS16 (11720944_at) / RFU, VPS4B / Fold change vs veh, VPS4B / RFU, CREB1 / Fold change vs veh, CREB1 / RFU, DNAJC13 / Fold change vs veh, DNAJC13 / RFU, GNAQ / Fold change vs veh, GNAQ / RFU, CDK5R1 / Fold change vs veh, CDK5R1 / RFU, ZRANB3 / Fold change vs veh, ZRANB3 / RFU, CUL4A / Fold change vs veh, CUL4A / RFU, CCNY / Fold change vs veh, CCNY / RFU, UFL1 / Fold change vs veh, UFL1 / RFU, COG3 / Fold change vs veh, COG3 / RFU, DIAPH2 / Fold change vs veh, DIAPH2 / RFU, SKA2 / Fold change vs veh, SKA2 / RFU, AFF3 / Fold change vs veh, AFF3 / RFU, LMF1 / Fold change vs veh, LMF1 / RFU, IPO11 / Fold change vs veh, IPO11 / RFU, DFFB / Fold change vs veh, DFFB / RFU, FOXP1 / Fold change vs veh, FOXP1 / RFU, CARD8 / Fold change vs veh, CARD8 / RFU, STRN3 / Fold change vs veh, STRN3 / RFU, ADK / Fold change vs veh, ADK / RFU, RASSF2 / Fold change vs veh, RASSF2 / RFU, WIPF1 / Fold change vs veh, WIPF1 / RFU, LARP1B / Fold change vs veh, LARP1B / RFU, RASA1 / Fold change vs veh, RASA1 / RFU, RB1 / Fold change vs veh, RB1 / RFU, PPFIA1 / Fold change vs veh, PPFIA1 / RFU, MAT2A / Fold change vs veh, MAT2A / RFU, CCT5 / Fold change vs veh, CCT5 / RFU, WDR92 / Fold change vs veh, WDR92 / RFU, CUX1 / Fold change vs veh, CUX1 / RFU, TTC7A / Fold change vs veh, TTC7A / RFU, TMEM135 / Fold change vs veh, TMEM135 / RFU, DEPTOR / Fold change vs veh, DEPTOR / RFU, CPM / Fold change vs veh, CPM / RFU, DNAJB6 / Fold change vs veh, DNAJB6 / RFU, CACNA2D3 / Fold change vs veh, CACNA2D3 / RFU, DTX4 / Fold change vs veh, DTX4 / RFU, TFCP2 / Fold change vs veh, TFCP2 / RFU, GMCL1 /// GMCL1P1 / Fold change vs veh, GMCL1 /// GMCL1P1 / RFU, AEBP2 / Fold change vs veh, AEBP2 / RFU, SNHG1 /// SNORD22 /// SNORD25 /// SNORD26 /// SNORD27 /// SNORD28 /// SNORD29 /// SNORD31 / Fold change vs veh, SNHG1 /// SNORD22 /// SNORD25 /// SNORD26 /// SNORD27 /// SNORD28 /// SNORD29 /// SNORD31 / Fold change (Aza/veh), C12orf56 (ProbeSet 11735607_a_at) / Fold change (ACY-1035/veh), C12orf56 (ProbeSet 11735607_a_at) / Fold change (Aza/veh), FGFR1OP (ProbeSet 11751329_s_at) / Fold change (ACY-1035/veh), FGFR1OP (ProbeSet 11751329_s_at) / Fold change (Aza/veh), VPS36 (ProbeSet 11739960_a_at) / Fold change (ACY-1035/veh), VPS36 (ProbeSet 11739960_a_at) / RFU SYPL1 (11715823_x_at) / Fold change /veh SYPL1 (11715823_x_at) / RFU IGFBP7 (11715501_s_at) / Fold change /veh IGFBP7 (11715501_s_at) / RFU REEP3 (11722064_at) / Fold change /veh REEP3 (11722064_at) / RFU IGLL1 (11728026_x_at) / Fold change /veh IGLL1 (11728026_x_at): dose or concentration left out as unconfirmed
Conditions: MV-4-11 cells, 48 hours

Nc1ccc(-c2cccs2)cc1NC(=O)c1ccc2c(c1)cc(C1CC1)n2CCN1CCOCC1 [ACY-1035]
Fold change /veh MBOAT4 (11741988_at): 1.14
